{"source": "paper PMC9496228", "about": "“Plasma Clearance of Intravenously Infused Adrenomedullin in Rats with Acute Renal Failure” (Biomolecules, 2022)", "key": {"[1]": {"assay": "Human adrenomedullin intraperitoneal administration study in E-RAMP2 KO and control mice, plasma concentration", "conditions": "mouse, in vivo, ip, 50 ug/kg, mean ± SD, read-out: Plasma AM concentration; for level at time molar at 10 min: 10 min after 50 μg/kg hAM intraperitoneally; for level at time molar at 0.5 h: 30 min after 50 μg/kg hAM intraperitoneally", "method": "E-RAMP2 KO mice (aged 9–10 weeks) were generated by intraperitoneal administration of 75 mg/kg tamoxifen suspended in corn oil (20 mg/mL) once daily for five consecutive days. Mice of the same strain treated only with corn oil were used as a control group. Three to four mice were prepared for each blood collection point.\n(§1) To measure plasma hAM concentrations, whole blood was collected with 2 mg/mL EDTA-2Na and 500 Kallikrein Inhibitory Units (KIU)/mL of aprotinin. Plasma was obtained by centrifugation at 10,000× g for 2 min at 4 °C and stored at −30 °C until the assays were performed. Plasma hAM concentration was measured using an automated immunoassay system (AIA-System, Tosoh Corporation, Tokyo, Japan) that was described previously, including intra- and inter-assay variations. This system is a one-step fluorescence sandwich immunoassay for the detection of human AM using two monoclonal antibodies against human AM(12–25) and AM(46–52)."}, "[2]": {"assay": "Human adrenomedullin 60-min continuous intravenous infusion study in rats, plasma pharmacokinetics", "assay_type": "in vivo, rat", "conditions": "mean ± SD; for level at time molar at 1 h / half-life / clearance: male, Lewis, rat, in vivo; for level at time molar at 1 h: 0.1 ug/kg/min, hAM iv infusion 0.1 µg/kg/min, read-out: Plasma AM concentration at 60 min after initiating treatment (AM C60); for half-life: read-out: T1/2β, half-life in the terminal phase after stopping infusion; for clearance: hAM iv infusion 0.1 µg/kg/min for 60 min, dose divided by AUC0–60, read-out: CLtotal, total systemic clearance", "method": "Renal dysfunction was induced by subcutaneous injection of 3 mg/kg mercury chloride (1 mg/mL saline) to rats (RD-Ag, n = 7) on the day before the adrenomedullin pharmacokinetic study. Control rats were treated with saline (normal renal function, NF, n = 5). Twenty-four hours after injection of mercury chloride (4 h before hAM administration), blood was collected from the tail vein of rats and serum creatinine (sCr) was measured using DRI-CHEM (FUJIFILM, Tokyo, Japan) to confirm the severity of renal damage. After the hAM administration study, the lungs and kidneys were removed from each group of rats, immersed in RNAlater (Thermo Fisher Scientific, Waltham, MA, USA), and frozen at −30 °C for later analysis.\nRats were subjected to cannulation at the beginning as described below. After laparotomy through a midline abdominal incision, the bilateral renal artery and vein of the rat were exposed and blocked with vascular clips to develop another model of renal dysfunction (RD-Bl, n = 3). Immediately after the vascular blockade, the rats were studied for hAM infusion experiment.\nRats under isoflurane anesthesia were placed on a heated surgical table in the supine position and subjected to cannulation (PE 50, Becton, Dickinson and Company, Franklin Lakes, NJ, USA) of the carotid artery and jugular vein. Human AM was dissolved in 20% mannitol to a concentration of 300 ng/mL and continuously administered at 0.1 µg/kg/min for 60 min via venous cannula using an infusion pump (KDS-100, KD Scientific, Holliston, MA, USA). After hAM administration had begun, 0.6 mL of whole blood was drawn from the arterial cannula at 0, 5, 10, 20, 30, 45, 60, 61.5, 63, 65, 70, 75, 80, and 90 min.\nas §1\nPharmacokinetic parameters in rats were calculated from individual plasma AM concentration vs time curves during and after 1 h intravenous infusion of hAM based on standard procedures. The area under the plasma concentration vs time curve (AUC0–60) was calculated during the first 60 min using a linear trapezoidal method, and the total systemic clearance (CLtotal) was calculated as the dose administered divided by AUC0–60. A plot of plasma concentration vs time after stopping hAM infusion yielded a biexponential curve. The elimination rate constant and half-life (T1/2β) in the terminal phase were calculated from individual plasma AM concentration vs time curves with a two-compartment model using the Solver tool in Microsoft Excel to minimize the sum of the squared residual values. Weighting was set to the standard deviation of plasma concentrations measured at each blood sampling point."}, "[3]": {"target": "AM receptor (CLR and RAMP2 or -3 heterodimeric receptors)", "conditions": "read-out: equilibrium dissociation constant for its receptor (Kd); cited from earlier work", "excerpt": "Therefore, the administered AM appears to bind almost exclusively to its receptor and undergo receptor-mediated clearance. The AM receptor is made up of CLR and RAMP2 or -3 heterodimeric receptors. RAMP2 or -3 is a molecular chaperone required for CLR transport to the cell surface as well as for specifying the affinity of CLR for AM [35]. The distribution of ^125I-labeled AM in ..."}, "[4]": {"conditions": "RD-Bl rats (bilateral renal blood flow blockage, n = 3)"}}, "note": "Where two headings read alike, the source gives them in different places.", "data": [{"compound": "CC[C@H](C)[C@H](NC(=O)[C@H](CCC(N)=O)NC(=O)[C@H](Cc1c[nH]cn1)NC(=O)[C@H](C)NC(=O)[C@H](CC(C)C)NC(=O)[C@H](CCCCN)NC(=O)[C@H](CCC(N)=O)NC(=O)[C@@H](NC(=O)[C@@H](NC(=O)[C@@H]1CSSC[C@H](NC(=O)CNC(=O)[C@H](Cc2ccccc2)NC(=O)[C@H](CO)NC(=O)[C@H](CCCNC(=N)N)NC(=O)[C@H](CC(C)C)NC(=O)CNC(=O)[C@H](CCC(N)=O)NC(=O)[C@H](Cc2ccccc2)NC(=O)[C@H](CC(N)=O)NC(=O)[C@H](CC(N)=O)NC(=O)[C@H](CCSC)NC(=O)[C@H](CO)NC(=O)[C@H](CCC(N)=O)NC(=O)[C@H](CCCNC(=N)N)NC(=O)[C@@H](N)Cc2ccc(O)cc2)C(=O)N[C@@H](CCCNC(=N)N)C(=O)N[C@@H](Cc2ccccc2)C(=O)NCC(=O)N[C@@H]([C@@H](C)O)C(=O)N1)[C@@H](C)O)C(C)C)C(=O)N[C@@H](Cc1ccc(O)cc1)C(=O)N[C@@H](CCC(N)=O)C(=O)N[C@@H](Cc1ccccc1)C(=O)N[C@H](C(=O)N[C@@H](CC(=O)O)C(=O)N[C@@H](CCCCN)C(=O)N[C@@H](CC(=O)O)C(=O)N[C@@H](CCCCN)C(=O)N[C@@H](CC(=O)O)C(=O)N[C@@H](CC(N)=O)C(=O)N[C@H](C(=O)N[C@@H](C)C(=O)N1CCC[C@H]1C(=O)N[C@@H](CCCNC(=N)N)C(=O)N[C@@H](CO)C(=O)N[C@@H](CCCCN)C(=O)N[C@H](C(=O)N[C@@H](CO)C(=O)N1CCC[C@H]1C(=O)N[C@@H](CCC(N)=O)C(=O)NCC(=O)N[C@@H](Cc1ccc(O)cc1)C(N)=O)[C@@H](C)CC)C(C)C)[C@@H](C)O", "note": "[AM, Human adrenomedullin]", "values": [{"measurement": "level at time molar at 10 min", "setting": "[1]; E-RAMP2 KO mice (n = 3–4)", "result": "3.98 ± 0.381", "unit": "nM"}, {"measurement": "level at time molar at 0.5 h", "setting": "[1]; E-RAMP2 KO mice (n = 3–4)", "result": "0.759 ± 0.234", "unit": "nM"}, {"measurement": "level at time molar at 10 min", "setting": "[1]; control mice (Cont, n = 3–4)", "result": "1.07 ± 0.595", "unit": "nM"}, {"measurement": "level at time molar at 0.5 h", "setting": "[1]; control mice (Cont, n = 3–4)", "result": "0.118 ± 0.0737", "unit": "nM"}, {"measurement": "T1/2β, half-life in the terminal phase after stopping infusion", "setting": "[2]; RD-Ag rats (mercury chloride, n = 7), after 60-min iv infusion of hAM 0.1 µg/kg/min, two-compartment model", "result": "22.2 ± 9.8", "unit": "min"}, {"measurement": "level at time molar at 1 h", "setting": "[2]; [4]", "result": "0.0781 ± 0.0105", "unit": "nM"}, {"measurement": "half-life", "setting": "[2]; iv, 0.1 µg/kg/min, NF rats (n = 5), after 60-min iv infusion of hAM 0.1 µg/kg/min, two-compartment model", "result": "15 ± 1.4", "unit": "min"}, {"measurement": "clearance", "setting": "[2]; iv, 0.1 µg/kg/min, NF rats (n = 5)", "result": "752 ± 230", "unit": "mL/min/kg"}, {"measurement": "level at time molar at 1 h", "setting": "[2]; iv, NF rats (n = 5)", "result": "0.049 ± 0.0136", "unit": "nM"}, {"measurement": "clearance", "setting": "[2]; iv, 0.1 µg/kg/min, RD-Ag rats (mercury chloride, n = 7)", "result": "192 ± 102", "unit": "mL/min/kg"}, {"measurement": "level at time molar at 1 h", "setting": "[2]; iv, RD-Ag rats (mercury chloride, n = 7)", "result": "0.162 ± 0.0887", "unit": "nM"}, {"measurement": "half-life", "setting": "[2]; RD-Bl rats (bilateral renal blood flow blockage, n = 3), after 60-min iv infusion of hAM 0.1 µg/kg/min, two-compartment model", "result": "16.7 ± 1.8", "unit": "min"}, {"measurement": "clearance", "setting": "[2]; [4]", "result": "450 ± 68.9", "unit": "mL/min/kg"}, {"measurement": "Kd", "setting": "[3]", "result": "0.3 to 0.6", "unit": "nM"}]}]}
